Data published in US9315459B2, “Crystalline forms of 4-[2-(4-methylphenylsulfanyl)-phenyl] piperidine” (priority 2006, dated 2016).

Columns and labels:
Format in all cases: cell-based
[1] = molecular target: T1, human-homomeric 5-HT3A receptors (Homo sapiens, UniProt P46098); assay: Voltage clamp in oocytes expressing human-homomeric 5-HT3A receptors; settings: agonism at higher concentrations
T1 sequence (P46098 24-478): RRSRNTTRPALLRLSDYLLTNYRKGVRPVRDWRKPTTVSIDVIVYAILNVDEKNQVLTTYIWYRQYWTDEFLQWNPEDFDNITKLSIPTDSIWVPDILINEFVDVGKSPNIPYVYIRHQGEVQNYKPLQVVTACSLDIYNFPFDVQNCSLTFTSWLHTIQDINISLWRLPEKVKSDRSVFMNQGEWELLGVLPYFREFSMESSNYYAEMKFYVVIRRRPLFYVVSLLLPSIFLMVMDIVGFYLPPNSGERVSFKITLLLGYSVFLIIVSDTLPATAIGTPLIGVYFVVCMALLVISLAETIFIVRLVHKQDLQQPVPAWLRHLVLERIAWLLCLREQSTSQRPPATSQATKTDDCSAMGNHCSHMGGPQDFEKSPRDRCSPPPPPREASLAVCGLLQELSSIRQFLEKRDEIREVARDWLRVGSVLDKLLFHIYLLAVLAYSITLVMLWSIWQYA
Protocol: The experiments were carried out as follows. […] Oocytes avoid of the follicle layer were selected and incubated for 24 hours in Modified Barth's Saline buffer [88 mM NaCl, 1 mM KCl, 15 mM HEPES, 2.4 mM NaHCO3, 0.41 mM CaCl2, 0.82 mM MgSO4, 0.3 mM Ca(NO3)2] supplemented with 2 mM sodium pyruvate, 0.1 U/l penicillin and 0.1 μg/l streptomycin. Stage […] oocytes were identified and injected with 12-48 nl of nuclease free water containing 14-50 pg of cRNA coding for human 5-HT3A receptors receptors and incubated at 18° C. until they were used for electrophysiological recordings (1-7 days after injection). […] Cells were impaled with agar plugged 0.5-1 MΩ electrodes containing 3 M KCl and voltage clamped at −90 mV by a GeneClamp 500B amplifier. The oocytes were continuously perfused with Ringer buffer and the drugs were applied in the perfusate.

human 5-HT2A receptors = molecular target: T2, human 5-HT2A receptors (Homo sapiens, UniProt P28223); assay: Functional assay, 5-HT evoked release of Ca2+ in CHO cells expressing human 5-HT2A receptors (FLIPR); settings: mammalian cells expressing human 5-HT2A
T2 construct: expressed in transfected cells; host or cells: CHO cells (functional assay)
T2 sequence (P28223 whole entry): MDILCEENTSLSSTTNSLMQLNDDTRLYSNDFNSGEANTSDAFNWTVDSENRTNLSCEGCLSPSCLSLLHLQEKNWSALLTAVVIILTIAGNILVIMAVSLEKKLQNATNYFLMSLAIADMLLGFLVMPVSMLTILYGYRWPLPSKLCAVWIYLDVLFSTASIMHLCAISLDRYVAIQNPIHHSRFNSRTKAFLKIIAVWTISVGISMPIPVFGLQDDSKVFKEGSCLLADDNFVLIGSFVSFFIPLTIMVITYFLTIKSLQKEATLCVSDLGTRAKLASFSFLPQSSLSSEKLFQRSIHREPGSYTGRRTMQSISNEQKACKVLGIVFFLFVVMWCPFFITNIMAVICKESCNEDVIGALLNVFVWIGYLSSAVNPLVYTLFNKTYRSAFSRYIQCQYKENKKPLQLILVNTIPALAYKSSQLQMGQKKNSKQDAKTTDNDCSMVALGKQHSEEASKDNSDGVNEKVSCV
Protocol: The experiment was carried out as follows. 2 or 3 days before the experiment CHO cells expressing 250 fmol/mg human 5-HT2A receptors are plated at a density sufficient to yield a mono-confluent layer on the day of the experiment. […] Lacer intensity was set to a suitable level to obtain basal values of approximately 8000-10000 fluorescence units. The variation in basal fluorescence should be less than 10%. […] Ki values are calculated using Cheng-Prusoff equation.

[2] = molecular target: T3, human alpha1A-7 receptors (Homo sapiens, UniProt P35348); assay: Functional assay, adrenaline evoked release of Ca2+ in CHO cells expressing human alpha1A-7 receptors
T3 construct: expressed in transfected cells; host or cells: CHO cells
T3 sequence (P35348 1-466): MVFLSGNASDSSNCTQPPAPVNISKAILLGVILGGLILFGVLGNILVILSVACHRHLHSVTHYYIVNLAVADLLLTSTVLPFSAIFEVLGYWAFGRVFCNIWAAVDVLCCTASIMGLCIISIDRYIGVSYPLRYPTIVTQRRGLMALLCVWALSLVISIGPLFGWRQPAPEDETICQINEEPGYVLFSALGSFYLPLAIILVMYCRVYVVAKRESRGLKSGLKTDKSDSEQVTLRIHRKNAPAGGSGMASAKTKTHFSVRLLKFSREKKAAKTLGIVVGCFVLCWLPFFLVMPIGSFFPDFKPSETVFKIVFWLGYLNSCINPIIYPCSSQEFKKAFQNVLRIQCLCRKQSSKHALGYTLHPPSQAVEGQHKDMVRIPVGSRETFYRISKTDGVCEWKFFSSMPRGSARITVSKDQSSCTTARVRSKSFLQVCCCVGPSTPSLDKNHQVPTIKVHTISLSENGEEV
Protocol: These experiments were carried out essentially as described below. All cells were cultured in DMEM medium supplemented with 10% BCS, 4 mM L-glutamine (or 2 mM in the case of COS-7), and 100 units/ml penicillin plus 100 μg/ml streptomycin, at 37° C., in 5% CO2. Twenty-four hours prior to assays, CHO cells expressing the human alpha1A-7 receptors were seeded into 384-well black wall microtiter plates coated with poly-D-lysine. […] After excess dye was discarded, cells were washed in assay buffer and layered with a final volume equal to 45 μl/well (or 30 ul/well for antagonist assay). […] Basal fluorescence was monitored in a fluorometric imaging plate reader or FLIPR™ from Molecular Devices (Sunnyvale, Calif.) with an excitation wavelength of 488 nm and an emission range of 500 to 560 nm. Laser excitation energy was adjusted so that basal fluorescence readings were approximately 8,000 relative fluorescent units (RFU). Cells were then stimulated at room temperature with agonists diluted in assay buffer (15 μl), and RFU were measured at 1.5 second intervals over a period of 2.5 min. Maximum change in fluorescence was calculated for each well. Concentration-response curves derived from the maximum change in fluorescence were analyzed by nonlinear regression (Hill equation).

With `Cc1ccc(Sc2ccccc2C2CCNCC2)cc1` [compound I, 4-[2-(4-methylphenylsulfanyl)-phenyl]piperidine] the “Maximal current, % of the maximal current elicited by 5-HT” value [1] was 70-80%, the “Mode of action at human 5-HT2A receptors” value (human 5-HT2A receptors) was “competitive antagonistic properties” and the “Functional profile, adrenaline evoked release of Ca2+” value [2] was “antagonists”.
